The results in this text go back to patent US20260070917A1, “CYCLIN DEPENDENT KINASE DEGRADERS AND METHODS OF USE THEREOF” (Differentiated Therapeutics Inc, priority 2023, published 2026).

Format in all cases: cell-based
One test addresses T1, CDK2 (Homo sapiens, UniProt P24941).
T1 construct: host or cells: HEK293-CDK2-Hibit
Briefly: HiBit Assay Protocol for CDK2 (HIBIT protein quantification, degradation). The conditions noted are these: HEK293-CDK2-Hibit cells, compound treatment for 6 hours; for DC50: ABS DC50. In short, it runs like this: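 HEK293 cells expressing HiBiT-tagged CDK2 were seeded overnight, then treated 6 h with a 3-fold, 10-point compound dilution series. CDK2 levels were read as luminescence after lytic HiBiT/LgBiT detection, normalised to DMSO-only and medium-only controls, and DC50 derived by curve fitting.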
On the technique in general: The HiBiT peptide binds its large partner to form an active luciferase.

The target of a further test is T2, CCNE1 (Homo sapiens, UniProt P24864).
T2 construct: host or cells: HEK293-CCNE1-Hibit
T2 sequence (P24864 whole entry): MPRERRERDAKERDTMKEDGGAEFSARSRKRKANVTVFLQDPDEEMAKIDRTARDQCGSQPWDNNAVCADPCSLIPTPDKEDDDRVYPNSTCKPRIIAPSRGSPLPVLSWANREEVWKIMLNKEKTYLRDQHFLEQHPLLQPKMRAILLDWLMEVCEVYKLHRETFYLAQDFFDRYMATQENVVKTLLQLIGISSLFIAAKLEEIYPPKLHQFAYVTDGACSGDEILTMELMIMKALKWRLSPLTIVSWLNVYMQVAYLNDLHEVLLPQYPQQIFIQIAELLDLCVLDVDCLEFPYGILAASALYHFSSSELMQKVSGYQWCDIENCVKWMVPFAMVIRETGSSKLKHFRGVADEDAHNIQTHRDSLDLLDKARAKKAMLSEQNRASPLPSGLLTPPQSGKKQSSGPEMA
Briefly: HiBit Assay Protocol for CCNE1 (HIBIT protein quantification, degradation). Conditions: HEK293-CCNE1-Hibit cells, compound treatment for 6 hours. In short, it runs like this: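 HEK293 cells expressing HiBiT-tagged CCNE1 were seeded overnight, then treated 6 h with a 3-fold, 10-point compound dilution series. HiBiT levels were read by lytic LgBiT luminescence and normalised to DMSO-only (high) and medium-only (low) controls. DC50 was derived by curve fitting.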

The target of a further test is T3, CDK9 (Homo sapiens, UniProt P50750).
T3 construct: host or cells: HEK293-CDK9-Hibit
T3 sequence (P50750 whole entry): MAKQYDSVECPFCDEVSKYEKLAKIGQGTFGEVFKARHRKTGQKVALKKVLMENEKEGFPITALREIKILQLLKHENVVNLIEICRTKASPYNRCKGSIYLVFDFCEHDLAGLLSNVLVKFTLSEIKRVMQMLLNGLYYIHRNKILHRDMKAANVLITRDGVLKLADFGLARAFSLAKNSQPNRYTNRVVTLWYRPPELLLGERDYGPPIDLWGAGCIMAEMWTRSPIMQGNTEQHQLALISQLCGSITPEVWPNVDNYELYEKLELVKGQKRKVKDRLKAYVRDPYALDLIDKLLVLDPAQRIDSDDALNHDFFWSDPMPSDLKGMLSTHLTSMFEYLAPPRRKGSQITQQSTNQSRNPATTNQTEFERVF
Put plainly: HiBit Assay Protocol for CDK9 (HIBIT protein quantification, degradation). The conditions noted are these: 6 h, HEK293-CDK9-Hibit cells, compound treatment for 6 hours; read-out: CDK9 HIBIT Protein Quantification Maximum. In short, it runs like this:
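HEK293 cells carrying HiBiT-tagged CDK9 treated 6 h with compounds in a 3-fold, 10-point dilution series. CDK9 level read by lytic Nano-Glo HiBiT/LgBiT luminescence and normalized to 0.1% DMSO (high) and medium-only (low) controls. DC50 from curve fitting.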

For the molecule `Cn1nc(N2CCC(=O)NC2=O)c2ccc(N3CCN(Cc4cccc(S(=O)(=O)N5CCC(Nc6ncc7c(n6)N([C@@H]6CCC[C@@H](O)C6)C(=O)C76CC6)CC5)c4)CC3)cc21` [Compound 184], on CDK2, the “CDK2 HIBIT Protein Quantification Maximum” value is listed as 90% and the DC50 is 5.47 nM. Moreover, at CCNE1, the “CCNE1 HIBIT Protein Quantification Maximum” value turned out to be 43%. Moreover, the Dmax at CDK9 was determined as 22%.
Turning to `CC1CN(Cc2cccc(S(=O)(=O)N3CCC(Nc4ncc5c(n4)N([C@@H]4CCC[C@@H](O)C4)C(=O)C54CC4)CC3)c2)CCN1c1ccc2c(N3CCC(=O)NC3=O)nn(C)c2c1` (some centres unmarked) [Compound 185], at CDK2, the “CDK2 HIBIT Protein Quantification Maximum” value is 84% and the DC50 was found to be 6.77 nM. In addition, at CCNE1, the “CCNE1 HIBIT Protein Quantification Maximum” value is on record as 36%. Moreover, the Dmax at CDK9 was found to be 5%.
The corresponding values for `Cn1nc(N2CCC(=O)NC2=O)c2ccc(C3CCN(CC4CCCN(S(=O)(=O)N5CCC(Nc6ncc7c(n6)N([C@@H]6CCC[C@@H](O)C6)C(=O)C76CC6)CC5)C4)CC3)cc21` (stereo partly drawn) [Compound 186, 1-[6-(1-{[1-(4-{7′-[(1R,3R)-3-Hydroxycyclohexyl]-6′-oxospiro[cyclopropane-1,5′-pyrrolo[2,3-d]pyrimidin]-2′-ylamino}piperidin-1-ylsulfonyl)piperidin-3-yl]methyl}piperidin-4-yl)-1-methylindazol-3-yl]-1,3-diazinane-2,4-dione] are 62%, 2.82 nM, 43% and 27%.
As for `CC(c1cccc(S(=O)(=O)N2CC[C@H](Nc3ncc4c(n3)N([C@@H]3CCC[C@@H](O)C3)C(=O)C43CC3)[C@H](F)C2)c1)N1CCN(c2ccc3c(N4CCC(=O)NC4=O)nn(C)c3c2)CC1` (some centres unmarked) [Compound 187], at CDK2, the “CDK2 HIBIT Protein Quantification Maximum” value was found to be 91% and it took 4.32 nM to reach half-maximal degradation (DC50). The “CCNE1 HIBIT Protein Quantification Maximum” value on CCNE1 came to 45%. Besides, the Dmax at CDK9 turned out to be 11%.
Regarding `CC(c1cccc(S(=O)(=O)N2CC[C@H](Nc3ncc4c(n3)N([C@@H]3CCC[C@@H](O)C3)C(=O)C43CC3)[C@H](F)C2)c1)N1CCC(c2ccc3c(N4CCC(=O)NC4=O)nn(C)c3c2)CC1` (some centres unmarked) [Compound 188], at CDK2, the “CDK2 HIBIT Protein Quantification Maximum” value amounted to 85% and the DC50 came out at 1.92 nM. Further, the “CCNE1 HIBIT Protein Quantification Maximum” value on CCNE1 is listed as 45%. Also, on CDK9, the Dmax came out at 24%.
In the same order, the values of `C[C@@H]1CN(c2ccc3c(N4CCC(=O)NC4=O)nn(C)c3c2)CCN1[C@H](C)c1cccc(S(=O)(=O)N2CC[C@H](Nc3ncc4c(n3)N([C@@H]3CCC[C@@H](O)C3)C(=O)C43CC3)[C@H](F)C2)c1` [Compound 191, 1-(6-((R)-4-((R)-1-(3-(((3R,4S)-3-Fluoro-4-((7′-((1R,3R)-3-hydroxycyclohexyl)-6′-oxo-6′,7′-dihydrospiro[cyclopropane-1,5′-pyrrolo[2,3-d]pyrimidin]-2′-yl)amino)piperidin-1-yl)sulfonyl)phenyl)ethyl)-3-methylpiperazin-1-yl)-1-methyl-1H-indazol-3-yl)dihydropyrimidine-2,4(1H,3H)-dione] are 90%, 21.9 nM, 48% and 9%.
For the molecule `C[C@@H]1CN(c2ccc3c(N4CCC(=O)NC4=O)nn(C)c3c2)CCN1[C@@H](C)c1cccc(S(=O)(=O)N2CC[C@H](Nc3ncc4c(n3)N([C@@H]3CCC[C@@H](O)C3)C(=O)C43CC3)[C@H](F)C2)c1` [Compound 192, 1-(6-((R)-4-((S)-1-(3-(((3R,4S)-3-Fluoro-4-((7′-((1R,3R)-3-hydroxycyclohexyl)-6′-oxo-6′,7′-dihydrospiro[cyclopropane-1,5′-pyrrolo[2,3-d]pyrimidin]-2′-yl)amino)piperidin-1-yl)sulfonyl)phenyl)ethyl)-3-methylpiperazin-1-yl)-1-methyl-1H-indazol-3-yl)dihydropyrimidine-2,4(1H,3H)-dione], at CDK2, the “CDK2 HIBIT Protein Quantification Maximum” value amounted to 92% and half-maximal degradation (DC50) was put at 4.67 nM. The “CCNE1 HIBIT Protein Quantification Maximum” value on CCNE1 came out at 45%. Also, the Dmax at CDK9 was 16%.
The corresponding values for `CC(c1cccc(S(=O)(=O)N2CC[C@H](Nc3ncc4c(n3)N([C@@H]3CCC[C@@H](O)C3)C(=O)C43CC3)[C@H](F)C2)c1)N1CCN(c2ccc3c(N4CCC(=O)NC4=O)nn(C)c3c2)C[C@H]1C` (stereo partly drawn) [Compound 195, 1-(6-((3R)-4-(1-(3-(((3R,4S)-3-Fluoro-4-((7′-((1R,3R)-3-hydroxycyclohexyl)-6′-oxo-6′,7′-dihydrospiro[cyclopropane-1,5′-pyrrolo[2,3-d]pyrimidin]-2′-yl)amino)piperidin-1-yl)sulfonyl)phenyl)ethyl)-3-methylpiperazin-1-yl)-1-methyl-1H-indazol-3-yl)dihydropyrimidine-2,4(1H,3H)-dione] are 92%, 5.54 nM, 41% and 21%.
In the same order, the values of `C[C@H](c1cccc(S(=O)(=O)N2CC[C@H](Nc3ncc4c(n3)N([C@@H]3CCC[C@@H](O)C3)C(=O)C43CC3)[C@H](F)C2)c1)N1CCN(c2ccc3c(N4CCC(=O)NC4=O)nn(C)c3c2)CC1` [Compound 196] are 93%, 12 nM, 36% and 14%.
As for `C[C@@H](c1cccc(S(=O)(=O)N2CC[C@H](Nc3ncc4c(n3)N([C@@H]3CCC[C@@H](O)C3)C(=O)C43CC3)[C@H](F)C2)c1)N1CCN(c2ccc3c(N4CCC(=O)NC4=O)nn(C)c3c2)CC1` [Compound 197], at CDK2, the “CDK2 HIBIT Protein Quantification Maximum” value is recorded as 91% and the DC50 amounted to 10.5 nM. The “CCNE1 HIBIT Protein Quantification Maximum” value at CCNE1 was found to be 33%. On CDK9, the Dmax is 8%.
`C[C@H](c1cccc(S(=O)(=O)N2CC[C@H](Nc3ncc4c(n3)N([C@@H]3CCC[C@@H](O)C3)C(=O)C43CC3)[C@H](F)C2)c1)N1CCC(c2ccc3c(N4CCC(=O)NC4=O)nn(C)c3c2)CC1` [Compound 198]: on CDK2, the “CDK2 HIBIT Protein Quantification Maximum” value is 80% and the DC50 was 2.48 nM. For the same molecule, the “CCNE1 HIBIT Protein Quantification Maximum” value at CCNE1 was found to be 40%. Also, at CDK9, the Dmax is 2%.
As to `CC(C)[C@@H]1CN([C@H](C)c2cccc(S(=O)(=O)N3CC[C@H](Nc4ncc5c(n4)N([C@@H]4CCC[C@@H](O)C4)C(=O)C54CC4)[C@H](F)C3)c2)CCN1c1ccc2c(N3CCC(=O)NC3=O)nn(C)c2c1` [Compound 204], at CDK2, the “CDK2 HIBIT Protein Quantification Maximum” value turned out to be 85% and it took 10.4 nM to reach half-maximal degradation (DC50). Further, the “CCNE1 HIBIT Protein Quantification Maximum” value on CCNE1 turned out to be 33%. On CDK9, the Dmax turned out to be 15%.
In the same order, the values of `CC(C)[C@@H]1CN([C@@H](C)c2cccc(S(=O)(=O)N3CC[C@H](Nc4ncc5c(n4)N([C@@H]4CCC[C@@H](O)C4)C(=O)C54CC4)[C@H](F)C3)c2)CCN1c1ccc2c(N3CCC(=O)NC3=O)nn(C)c2c1` [Compound 205] are 88%, 13.1 nM, 38% and 14%.
For the molecule `C[C@@H](c1cccc(S(=O)(=O)N2CC[C@H](Nc3ncc4c(n3)N([C@@H]3CCC[C@@H](O)C3)C(=O)C43CC3)[C@H](F)C2)c1)N1CCN(c2ccc3c(N4CCC(=O)NC4=O)nn(C)c3c2)[C@@H](C)C1` [Compound 206], at CDK2, the “CDK2 HIBIT Protein Quantification Maximum” value is 91% and the DC50 stood at 10.9 nM. Besides, the “CCNE1 HIBIT Protein Quantification Maximum” value on CCNE1 is listed as 43%. Besides, the Dmax at CDK9 is 13%.

As usually defined, the DC50 is the concentration at which degradation of the target reaches its halfway point. A low value points to degradation at low concentration.
